From US20220387602A1, “BIFUNCTIONAL DEGRADERS AND THEIR METHODS OF USE” (NOVARTIS AG, priority 2019, published 2022) come the findings set out here.

In one assay the target is T1, BTK (Homo sapiens, UniProt Q06187).
T1 construct: the BTK open reading frame (ORF) was first shuttled from a pcDNA-DEST40-BTK vector; expressed in transfected cells; host or cells: HEK293A (Invitrogen R70507), lentiviral transduction, blasticidin selection
The experiment in a line: BTK-GFP protein abundance flow cytometry assay in HEK293A. In kind it is cell-based. Conditions: 24 h; for BTK degradation Amax: % protein remaining at the concentration at which maximum degradation is seen, HEK293A; for DC50: concentration at which 50% maximal degradation was observed, HEK293A BTK-GFP sensor cells. Here is the method:
Degradation of BTK, CSK, ABL2, EPHA4 and YES1 was measured in HEK293A cells (Invitrogen R70507) expressing either BTK-GFP and RFP, CSK-GFP and mCherry, GFP-ABL2 and mCherry, EPHA4-GFP and mCherry, or YES1-GFP and mCherry from a stably integrated bicistronic BTK-GFP-iresRFP, CSK-GFP-CHYSEL-mCherry, GFP-ABL2-CHYSEL-mCherry, EPHA4-GFP-CHYSEL-mCherry, or YES1-GFP-CHYSEL-mCherry construct, respectively. Reduction of the GFP signal measured by flow cytometry served as readout for BTK, CSK, ABL2, EPHA4 and YES1 degradation after degrader treatment.
The mix was incubated for another 20 min at RT and then added on 1 mL of a freshly prepared suspension of HEK293FT cells in a well of a 6-well plate (concentration 1.2×10^6 cells/mL). 1 day after transfection, the medium was replaced with 1.5 mL of complete growth medium (DMEM high Glucose+10% FCS+1% L-Glutamine+1% NEAA+1% NaPyr.). 48 h post transfection supernatant containing viral transducing particles was collected and frozen at −80° C.
Infection was performed with 90 μL of collected supernatant containing viral transducing particles in 1 mL medium including 8 µg/mL polybrene. 24 h post infection, stably transfected cells were selected with blasticidin at a concentration of 8 μg/mL referred to as stable HEK293A sensor cells.
Stable HEK293A sensor cells were maintained in complete growth medium (DMEM high Glucose+10% FCS+1% L-Glutamine+1% NEAA+1% NaPyr.) with passaging performed twice per week. On Day 0, stable HEK293A sensor cells were seeded at 10,000 cells/well in a 96-well microtiter plate in 260 μL complete medium. On Day 1, cells were treated in duplicate with 10-point 1:3 dilution series of compound using the HP D300 Digital Dispenser (Tecan). DMSO concentrations were normalized across the plate to 0.1%. On Day 2, after 24 h of incubation at 37° C., treatment media was discarded, cells rinsed with 100 μL/well PBS and then detached using 40 μL trypsin/well for 5 min. Trypsin was neutralized with 100 μL/well PBS+20% FCS). Flow cytometry was performed on the samples using the BD FACS CANTO II (Becton Dickinson). Cell identification was then performed using forward (FSC) vs. side scatter (SSC) plots. Single cell discrimination is performed using SSC-Width (SSC-W) vs. SSC-Height (SSC-H) plots. Median GFP values for 5,000 single cells are used to determine BTK levels. Median GFP values from HEK293 Å-iresRFP are used as a background signal and thus defining 0% BTK signal. Median GFP values from DMSO treated HEK293 Å-BTK-GFP-iresRFP are used to define 100% BTK signal for subsequent DC50 curves (concentration at 50% BTK degradation). GFP and RFP are read in the channels called FITC and PE, respectively.
Concentration response curves plotting relative reduction of the GFP signal (measured by flow cytometry) versus 10 compound concentrations (starting concentration 10 μM, 3 fold dilution steps) of the compounds allowed generation of DC50 values. Protein abundance measured for the second generation vectors having a chysel was done in close analogy to the above described method for measuring BTK abundance.
Table 5 columns are defined as follows: DC50 refers to the concentration at which 50% maximal degradation was observed; deg Amax is the extent of degradation and the value refers to the % protein remaining at the concentration at which maximum degradation is seen.
(In flow cytometry, cells or beads pass a laser one at a time.)

The target in assay [1] is T2, CRBN (Homo sapiens, UniProt Q96SW2). The assay is described as follows: CRBN displacement assay Format 1 (fluorescence polarization, BodipyFL-lenalidomide probe Compound HH). Format: binding. Here is the method:
(§1) Compounds were tested in the following biochemical and cellular assays.
(§2) BodipyFL conjugated lenalidomide compound HH was used as a fluorescent probe. […] Protein and substrate were diluted in assay buffer.
All protein and probe containing solutions were handled in ‘Maxymum Recovery’ tubes (Axygen Scientific Inc., Union City, USA). […] For the plate measurements a PHERAstar reader (BMG Labtech, Offenburg, Germany) was used. The instrument was equipped with a specific optics module containing filters and dichoic mirrors for measuring the fluorescence polarization-type assay. With this module, the fluorescence of the Bodipy FL-based probe was excited at 485 nm and the emissions of the product were measured at 520 nm. The fluorescence in each well was excited by 10 flashes per measurement.
For the determination of AC50 values, the assays were performed at room temperature in 384-well plates with a total assay volume of 10.1 μL per well. The test compound was dissolved in 90% (v/v) DMSO/water. For the assays, 100 nL of the 90% (v/v) DMSO/water solution or compound solution were added per well, followed by the addition of 5 μL protein solution (protein in 1× assay buffer).
(§3) The final assay concentration of the protein was nominally 100 nM. After 45 minutes of pre-incubation at room temperature, the competition for binding was started by the addition of 5 μL probe solution (probe dissolved in assay buffer). The final concentration of the probes in the assays was 5 nM. After the addition of the probe solution, the final DMSO concentration in the assay was 0.9% (v/v). The effect of the probe on the pre-established compound-protein complex equilibrium was determined after 45 minutes (t=45 min). The AC50 value was calculated from the plot of percentage of protein saturation versus the test compound concentration by a logistics fit according to: y=A^2+(A^1−A^2)/(1+(x/AC50)^p), where y is the %-saturation value at the test compound concentration, x. A^1 is the lowest saturation value, i.e., 0%, and A^2 the maximum saturation value, i.e. 100%. The exponent, p, is the Hill coefficient.

For assay [2], the target named is T2, CRBN. The experiment in a line: CRBN displacement assay Format 2a (fluorescence polarization, 1536-well, Envision reader). Format: binding. To be noted: for CRBN Amax* (% at 50 μM) Format 2a: greatest effect as % displacement of the reference probe at the highest concentration tested (50 μM), given where AC50 >50 μM, 45 min. Here is the method: as §1, §2
The fluorescence of the Bodipy FL-based probe was excited at 480 nm and the emissions of the product were measured at 535 nm. The fluorescence in each well was excited by 30 flashes per measurement.
For the determination of AC50 values, assays were performed at room temperature in 1536-well plates with a total assay volume of 6.03 μL per well. The test compounds were dissolved and diluted in 100% DMSO. For the assays, 30 nL of DMSO or compound solution were added per well, followed by the addition of 3 μL protein solution (80 nM protein in 1× assay buffer).
as §3, with “nominally 40” for “nominally 100”, “of 3” for “of 5”, “solution (10 nM probe” for “solution (probe”, “the probe” for “the probes”, “was 0.5%” for “was 0.9%”
(In general: In fluorescence polarisation assays a small probe gives low polarisation when free and higher when bound to something large.)

One may read the DC50 as the midpoint of the concentration-degradation curve. Lower therefore signals a more potent degrader. For orientation: AC50 means the concentration at which the activity in the assay is half-maximal.

T1 sequence (Q06187 whole entry): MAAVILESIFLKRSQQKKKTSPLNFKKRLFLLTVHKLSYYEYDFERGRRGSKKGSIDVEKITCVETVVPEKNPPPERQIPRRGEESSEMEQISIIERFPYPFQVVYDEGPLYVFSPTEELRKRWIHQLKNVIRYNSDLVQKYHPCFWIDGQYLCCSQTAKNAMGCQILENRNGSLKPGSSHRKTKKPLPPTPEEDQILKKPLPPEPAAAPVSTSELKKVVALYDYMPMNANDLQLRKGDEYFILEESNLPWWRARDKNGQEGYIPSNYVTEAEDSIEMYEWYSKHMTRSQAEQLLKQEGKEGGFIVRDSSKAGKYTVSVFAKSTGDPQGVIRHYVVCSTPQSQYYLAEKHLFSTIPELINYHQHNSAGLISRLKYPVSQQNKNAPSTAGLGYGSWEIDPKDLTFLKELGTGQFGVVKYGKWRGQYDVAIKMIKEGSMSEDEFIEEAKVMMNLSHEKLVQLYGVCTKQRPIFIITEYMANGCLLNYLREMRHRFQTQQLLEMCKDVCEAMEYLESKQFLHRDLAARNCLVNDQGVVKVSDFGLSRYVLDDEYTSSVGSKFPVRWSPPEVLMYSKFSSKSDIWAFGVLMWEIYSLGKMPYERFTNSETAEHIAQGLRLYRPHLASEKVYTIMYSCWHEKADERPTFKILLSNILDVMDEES
T2 sequence (Q96SW2 whole entry): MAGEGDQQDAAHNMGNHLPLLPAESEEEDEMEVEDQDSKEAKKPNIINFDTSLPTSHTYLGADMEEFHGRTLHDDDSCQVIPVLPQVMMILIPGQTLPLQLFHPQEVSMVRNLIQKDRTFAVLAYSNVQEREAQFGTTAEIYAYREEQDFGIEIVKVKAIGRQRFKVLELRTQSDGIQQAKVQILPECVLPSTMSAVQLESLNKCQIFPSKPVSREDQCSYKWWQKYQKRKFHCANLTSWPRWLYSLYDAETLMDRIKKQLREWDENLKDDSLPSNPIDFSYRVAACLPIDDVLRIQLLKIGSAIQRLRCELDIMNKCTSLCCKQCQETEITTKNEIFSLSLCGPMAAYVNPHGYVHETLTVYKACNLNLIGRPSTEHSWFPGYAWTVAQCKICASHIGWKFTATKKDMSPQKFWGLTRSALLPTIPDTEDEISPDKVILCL

Regarding `Cc1cc(OCCN2CCC(OC3CCN(Cc4ccc(-c5cc6c(-c7cc(F)cc(NC(=O)c8ccc(C(C)(C)O)cc8F)c7C)ncnc6[nH]5)cc4)CC3)CC2)ccc1N1CCC(=O)NC1=O` [Compound 30, N-(3-(6-(4-((4-((1-(2-(4-(2,4-dioxotetrahydropyrimidin-1(2H)-yl)-3-methylphenoxy)ethyl)piperidin-4-yl)oxy)piperidin-1-yl)methyl)phenyl)-7H-pyrrolo[2,3-d]pyrimidin-4-yl)-5-fluoro-2-methylphenyl)-2-fluoro-4-(2-hydroxypropan-2-yl)benzamide], at BTK, the “BTK degradation Amax” value was 12.2% and half-maximal degradation (DC50) was put at 0.0098 µM.
In the same order, the values of `Cc1c(NC(=O)c2ccc(C(C)(C)O)cc2F)cc(F)cc1-c1ncnc2[nH]c(-c3ccc(CN4CCC5(CCN(CCOc6ccc(N7CCC(=O)NC7=O)c(Cl)c6)CC5)CC4)cc3)cc12` [Compound 31, N-(3-(6-(4-((9-(2-(3-chloro-4-(2,4-dioxotetrahydropyrimidin-1(2H)-yl)phenoxy)ethyl)-3,9-diazaspiro[5.5]undecan-3-yl)methyl)phenyl)-7H-pyrrolo[2,3-d]pyrimidin-4-yl)-5-fluoro-2-methylphenyl)-2-fluoro-4-(2-hydroxypropan-2-yl)benzamide] are 32.8% and 0.0557 µM.
The corresponding values for `Cc1c(NC(=O)N2C[C@H](CC(C)C)[C@@H](O)C2)cc(F)cc1-c1ncnc2[nH]c(-c3ccc(CN4CCN(CCOc5ccc(N6CCC(=O)NC6=O)cc5)CC4)cc3)cc12` [Compound 32, (3R,4S)—N-(3-(6-(4-((4-(2-(4-(2,4-Dioxotetrahydropyrimidin-1(2H)-yl)phenoxy)ethyl)piperazin-1-yl)methyl)phenyl)-7H-pyrrolo[2,3-d]pyrimidin-4-yl)-5-fluoro-2-methylphenyl)-3-hydroxy-4-isobutylpyrrolidine-1-carboxamide] are 16.7% and 0.0014 µM.
Turning to `C=CCn1cccc(CN2CCC(=O)NC2=O)c1=O` [ILB-1, 1-((1-allyl-2-oxo-1,2-dihydropyridin-3-yl)methyl)dihydropyrimidine-2,4(1H,3H)-dione], the concentration at half-maximal activity (AC50) on CRBN [1] was 11 µM; at CRBN [2], 4.79 µM.
In the same order, the values of `O=C1CCN(Cc2cccn(CCO)c2=O)C(=O)N1` [ILB-3, 1-((1-(2-Hydroxyethyl)-2-oxo-1,2-dihydropyridin-3-yl)methyl)dihydropyrimidine-2,4(1H,3H)-dione] are 14.1 µM and 4.17 µM.
In the same order, the values of `O=C1CCN(Cc2cccn(CCN3CCC(OC4CCNCC4)CC3)c2=O)C(=O)N1` [ILB-6, 1-((2-oxo-1-(2-(4-(piperidin-4-yloxy)piperidin-1-yl)ethyl)-1,2-dihydropyridin-3-yl)methyl)dihydropyrimidine-2,4(1H,3H)-dione] are 19.8 µM and 8.36 µM.
On to `O=C1CCN(Cc2cccc(CCO)c2)C(=O)N1` [ILB-7, 1-(3-(2-Hydroxyethyl)benzyl)dihydropyrimidine-2,4(1H,3H)-dione], for which, on CRBN [1], the activity was half-maximal at 61.2 µM (AC50). In addition, on CRBN [2], the half-maximal activity concentration (AC50) is over 50 µM and the “CRBN Amax* (% at 50 μM) Format 2a” value worked out at 40%.
Take `O=C1CCN(Cc2cc(C(=O)O)ccn2)C(=O)N1` [ILB-8, 2-((2,4-Dioxotetrahydropyrimidin-1(2H)-yl)methyl)isonicotinic acid]: the half-maximal activity concentration (AC50) at CRBN [1] is over 100 µM. For the same compound, at CRBN [2], the AC50 is over 50 µM and the “CRBN Amax* (% at 50 μM) Format 2a” value is reported as 21%.
As for `Cc1cc(F)c(C(=O)O)cc1N1CCC(=O)NC1=O` [ILB-29, 5-(2,4-dioxotetrahydropyrimidin-1(2H)-yl)-2-fluoro-4-methylbenzoic acid], on CRBN [1] (concentration at which 50% of reference probe Compound HH is displaced, 100 nM protein, 5 nM probe, Table 4, read-out: CRBN AC50 [μM] Format 1), the AC50 was determined as 0.95 µM.
Regarding `O=C1CCN(c2c(F)cc(C#CCN3CCNCC3)cc2F)C(=O)N1` [ILB-45, 1-(2,6-difluoro-4-(3-(piperazin-1-yl)prop-1-yn-1-yl)phenyl)dihydropyrimidine-2,4(1H,3H)-dione], at CRBN [1], half-maximal activity (AC50) was put at 13.5 µM.
At CRBN [1], `O=C1CCN(c2cc(C(=O)N3CCC(OC4CCNCC4)CC3)ccc2Cl)C(=O)N1` [ILB-60, 1-(2-Chloro-5-(4-(piperidin-4-yloxy)piperidine-1-carbonyl)phenyl)dihydropyrimidine-2,4(1H,3H)-dione] came in with an AC50 of 2.8 µM.
